Like-named read-outs stand apart in the source and are kept apart here.
Molecular target: P2X7 (Homo sapiens (Human), UniProt Q99572)
Assay: P2X7 antagonism in human peripheral blood mononuclear cells (PBMCs), IL-1β release
Assay type: cell-based
Settings: LPS 30 ng/ml + Bz-ATP 0.5 mM; for remaining activity at 10 µM: read-out: PBMC 10 μM (% control)
Protocol: P2X7 Antagonism in Human Peripheral Blood Mononuclear Cells (PBMCs) and Human Whole Blood.
Human blood was collected using a blood donor program. PBMCs were isolated from blood using a Ficoll density gradient technique. Briefly, blood was laid on Ficoll solution and centrifuged at RT for 20 minutes at 2000 rpm. The buffy layer (between red blood cells and plasma) was carefully collected by aspiration, washed with PBS and centrifuged again at 1500 rpm for 15 minutes. The resulting cell pellet was washed and plated on 96 well-plates for experiments. For the Human Whole Blood experiments, 150 μl of human blood was platted on 96 well-plates. Lipopolysaccharide (LPS) (30 ng/ml) was added to each well and incubated for 1 hour. Test compounds were then added and incubated for 30 minutes. The P2X7 agonist, 2′(3′)-O-(4-benzoylbenzoyl) adenosine 5′-triphosphate (Bz-ATP) was then added at a final concentration of 0.5 mM (PBMC) or 1 mM (blood). Cells were incubated for an additional 1.5 hours. At that point, supernatant was collected and stored for IL-1β assay using manufacturer's protocol for enzyme-linked immunosorbent assay (ELISA). Data was expressed as percent control, where control is defined as the difference in IL-1β release in LPS+Bz-ATP samples and LPS only samples. Data was plotted as response (% control) versus concentration to generate IC50 values. […] Data are analyzed and graphed on Graphpad Prism 5. For analysis, each concentration point is averaged from triplicate values and the averaged values are plotted on Graphpad Prism.

[1] = P2X7, Table 2 (additional runs), 10 μM compound

Chain of P2X7 (Q99572 whole entry): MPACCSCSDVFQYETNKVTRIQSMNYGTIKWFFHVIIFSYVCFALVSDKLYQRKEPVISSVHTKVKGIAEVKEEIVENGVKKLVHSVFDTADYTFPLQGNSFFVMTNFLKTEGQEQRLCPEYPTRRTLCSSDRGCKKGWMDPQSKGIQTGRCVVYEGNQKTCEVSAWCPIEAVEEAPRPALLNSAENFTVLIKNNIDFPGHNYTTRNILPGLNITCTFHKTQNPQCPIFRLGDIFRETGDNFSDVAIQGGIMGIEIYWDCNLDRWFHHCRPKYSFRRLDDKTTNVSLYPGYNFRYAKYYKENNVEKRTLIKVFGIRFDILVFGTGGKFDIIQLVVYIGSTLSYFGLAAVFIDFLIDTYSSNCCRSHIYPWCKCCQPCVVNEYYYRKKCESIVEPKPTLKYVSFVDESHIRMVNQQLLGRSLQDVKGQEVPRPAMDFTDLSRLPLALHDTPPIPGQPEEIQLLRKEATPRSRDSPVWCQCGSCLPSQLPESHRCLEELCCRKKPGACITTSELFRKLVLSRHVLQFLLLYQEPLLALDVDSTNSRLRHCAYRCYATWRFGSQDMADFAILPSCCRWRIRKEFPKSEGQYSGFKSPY

| Structure (SMILES) | remaining activity at 10 µM [1] | remaining activity at 10 µM (P2X7, Table 1, 10 μM compound) | PBMC 10 μM (% control) (Table 1, 10 μM compound) |
| --- | --- | --- | --- |
| O=C(c1cccc(C(F)(F)F)c1Cl)N1[C@@H]2CCC[C@H]1c1nnc(-c3ccncn3)n1C2 (stereo in doubt) [Example 197, (6R,10S)-11-{[2-Chloro-3-(trifluoromethyl)phenyl]carbonyl}-3-pyrimidin-4-yl-5,6,7,8,9,10-hexahydro-6,10-epimino[1,2,4]triazolo[4,3-a]azocine] | 1.8% |  |  |
| O=C(c1cccc(C(F)(F)F)c1Cl)N1[C@@H]2CCC[C@H]1c1nnc(-c3cscn3)n1C2 (stereo in doubt) [Example 9, (6R*,10S*)-11-{[2-Chloro-3-(trifluoromethyl)phenyl]carbonyl}-3-(1,3-thiazol-4-yl)-5,6,7,8,9,10-hexahydro-6,10-epimino[1,2,4]triazolo[4,3-a]azocine] | 7.3% | 7.3% |  |
| O=C(c1ccc(F)c(Cl)c1Cl)N1[C@@H]2CCC[C@H]1c1nnc(-c3ccccn3)n1C2 (stereo in doubt) [Example 203, (6R,10S)-11-[(2,3-Dichloro-4-fluorophenyl)carbonyl]-3-pyridin-2-yl-5,6,7,8,9,10-hexahydro-6,10-epimino[1,2,4]triazolo[4,3-a]azocine] | -5% |  |  |
| Cc1nc(-c2nnc3n2C[C@H]2CCC[C@@H]3N2C(=O)c2cccc(C(F)(F)F)c2Cl)ccc1F (stereo in doubt) [Example 193, (6R,10S)-11-{[2-Chloro-3-(trifluoromethyl)phenyl]carbonyl}-3-(5-fluoro-6-methylpyridin-2-yl)-5,6,7,8,9,10-hexahydro-6,10-epimino[1,2,4]triazolo[4,3-a]azocine] | -13.8% |  |  |
| O=C(c1ccc(Cl)cc1Cl)N1[C@@H]2CCC[C@H]1c1nnc(-c3ncc(F)cn3)n1C2 (stereo in doubt) [Example 21, (6R*,10S*)-11-[(2,4-Dichlorophenyl)carbonyl]-3-(5-fluoropyrimidin-2-yl)-5,6,7,8,9,10-hexahydro-6,10-epimino[1,2,4]triazolo[4,3-a]azocine] | -2.1% | -2.1% |  |
| O=C(c1cccc(C(F)(F)F)c1Cl)N1[C@H]2CC[C@@H]1c1nnc(-c3ncccn3)n1C2 [Example 46, (6S,9R)-10-{[2-Chloro-3-(trifluoromethyl)phenyl]carbonyl}-3-pyrimidin-2-yl-6,7,8,9-tetrahydro-5H-6,9-epimino[1,2,4]triazolo[4,3-a]azepine] | 10% |  | 10.0 % control |
| COc1ccnc(-c2nnc3n2C[C@H]2CCC[C@@H]3N2C(=O)c2cccc(C(F)(F)F)c2Cl)c1 (stereo in doubt) [Example 27, (6R*,10S*)-11-{[2-Chloro-3-(trifluoromethyl)phenyl]carbonyl}-3-(4-methoxypyridin-2-yl)-5,6,7,8,9,10-hexahydro-6,10-epimino[1,2,4]triazolo[4,3-a]azocine] | 4.8% | 4.8% |  |
| O=C(c1cccc(C(F)(F)F)c1Cl)N1[C@@H]2CCC[C@H]1c1nnc(-c3ncccn3)n1C2 (stereo in doubt) [Example 3, (6R*,10S*)-11-{[2-Chloro-3-(trifluoromethyl)phenyl]carbonyl}-3-pyrimidin-2-yl-5,6,7,8,9,10-hexahydro-6,10-epimino[1,2,4]triazolo[4,3-a]azocine] | 8.9% | 8.9% |  |
| Cc1c(C(=O)N2[C@@H]3CCC[C@H]2c2nnc(-c4ccccn4)n2C3)cccc1C(F)(F)F (stereo in doubt) [Example 201, (6R,10S)-11-{[2-Methyl-3-(trifluoromethyl)phenyl]carbonyl}-3-pyridin-2-yl-5,6,7,8,9,10-hexahydro-6,10-epimino[1,2,4]triazolo[4,3-a]azocine] | -4% |  |  |
| O=C(c1cccc(C(F)(F)F)c1Cl)N1[C@@H]2CCC[C@H]1c1nnc(-c3cccnn3)n1C2 (stereo in doubt) [Example 195, (6R,10S)-11-{[2-Chloro-3-(trifluoromethyl)phenyl]carbonyl}-3-pyridazin-3-yl-5,6,7,8,9,10-hexahydro-6,10-epimino[1,2,4]triazolo[4,3-a]azocine] | 11.2% |  |  |
| O=C(c1ccnc(C(F)(F)F)c1Cl)N1[C@@H]2CCC[C@H]1c1nnc(-c3ccccn3)n1C2 (stereo in doubt) [Example 199, (6R,10S)-11-{[3-Chloro-2-(trifluoromethyl)pyridin-4-yl]carbonyl}-3-pyridin-2-yl-5,6,7,8,9,10-hexahydro-6,10-epimino[1,2,4]triazolo[4,3-a]azocine] | -3.2% |  |  |
| O=C(c1cccc(C(F)(F)F)c1Cl)N1[C@H]2CCC[C@@H]1c1nnc(-c3ncccn3)n1C2 (stereo in doubt) [Example 2, (6S*,10R*)-11-{[2-Chloro-3-(trifluoromethyl)phenyl]carbonyl}-3-pyrimidin-2-yl-5,6,7,8,9,10-hexahydro-6,10-epimino[1,2,4]triazolo[4,3-a]azocine] | 45.7% | 45.7% |  |
